Assay results: ChEMBL document CHEMBL1156016, “Discovery of potent and selective histone deacetylase inhibitors via focused combinatorial libraries of cyclic alpha3beta-tetrapeptides” (J Med Chem, 2009)
Active and inactive are the calls of the source. No cut-off for these calls is given here. Square brackets hold non-standard residues; d marks the D form. Peptide text beside a SMILES is read from it. * marks the point of attachment. Phe(F5) = N[C@@H](Cc1c(F)c(F)c(F)c(F)c1F)C(=O)O; β3hW = N[C@H](CC(=O)O)Cc1c[nH]c2ccccc12; 1Nal = N[C@@H](Cc1cccc2ccccc12)C(=O)O; β3hY = N[C@H](CC(=O)O)Cc1ccc(O)cc1; Asu = N[C@@H](CCCCCC(=O)O)C(=O)O; β3hL = CC(C)C[C@H](N)CC(=O)O; hLys = NCCCCC[C@H](N)C(=O)O; Carboxymethyl = O=C(O)C*; CH2CH2COOH = O=C(O)CC*; Aib = CC(C)(N)C(=O)O; X1 = CCC(=O)CC*; NHOH = ON*

How the values were obtained:
Histone deacetylase [1] = assay type: cell-based, Homo sapiens; conditions: hela
Description: Inhibition of HDAC in human HeLa cell cytosolic extract after 30 mins by fluorimetric assay

Histone deacetylase 8 = biological target: T1, Histone deacetylase 8 (Homo sapiens, UniProt Q9BY41)
T1 sequence (Q9BY41 whole entry): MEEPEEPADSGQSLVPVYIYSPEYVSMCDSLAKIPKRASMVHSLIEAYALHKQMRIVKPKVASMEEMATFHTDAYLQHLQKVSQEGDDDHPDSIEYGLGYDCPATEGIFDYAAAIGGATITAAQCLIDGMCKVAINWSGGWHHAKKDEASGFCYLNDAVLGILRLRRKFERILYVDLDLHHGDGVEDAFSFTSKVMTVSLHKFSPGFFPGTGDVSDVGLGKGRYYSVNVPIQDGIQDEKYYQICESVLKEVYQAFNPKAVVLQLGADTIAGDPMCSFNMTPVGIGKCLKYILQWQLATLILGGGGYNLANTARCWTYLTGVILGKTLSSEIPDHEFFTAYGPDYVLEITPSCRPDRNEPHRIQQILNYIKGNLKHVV
Description: Inhibition of human recombinant HDAC8 after 30 mins by fluorimetric assay

Histone deacetylase 3 = Histone deacetylase 3 (Homo sapiens, UniProt O15379)
Description: Inhibition of human recombinant HDAC3 after 30 mins by fluorimetric assay

[2] = biological target: T2, Protein deacetylase HDAC6 (Homo sapiens, UniProt Q9UBN7)
T2 sequence (Q9UBN7 whole entry): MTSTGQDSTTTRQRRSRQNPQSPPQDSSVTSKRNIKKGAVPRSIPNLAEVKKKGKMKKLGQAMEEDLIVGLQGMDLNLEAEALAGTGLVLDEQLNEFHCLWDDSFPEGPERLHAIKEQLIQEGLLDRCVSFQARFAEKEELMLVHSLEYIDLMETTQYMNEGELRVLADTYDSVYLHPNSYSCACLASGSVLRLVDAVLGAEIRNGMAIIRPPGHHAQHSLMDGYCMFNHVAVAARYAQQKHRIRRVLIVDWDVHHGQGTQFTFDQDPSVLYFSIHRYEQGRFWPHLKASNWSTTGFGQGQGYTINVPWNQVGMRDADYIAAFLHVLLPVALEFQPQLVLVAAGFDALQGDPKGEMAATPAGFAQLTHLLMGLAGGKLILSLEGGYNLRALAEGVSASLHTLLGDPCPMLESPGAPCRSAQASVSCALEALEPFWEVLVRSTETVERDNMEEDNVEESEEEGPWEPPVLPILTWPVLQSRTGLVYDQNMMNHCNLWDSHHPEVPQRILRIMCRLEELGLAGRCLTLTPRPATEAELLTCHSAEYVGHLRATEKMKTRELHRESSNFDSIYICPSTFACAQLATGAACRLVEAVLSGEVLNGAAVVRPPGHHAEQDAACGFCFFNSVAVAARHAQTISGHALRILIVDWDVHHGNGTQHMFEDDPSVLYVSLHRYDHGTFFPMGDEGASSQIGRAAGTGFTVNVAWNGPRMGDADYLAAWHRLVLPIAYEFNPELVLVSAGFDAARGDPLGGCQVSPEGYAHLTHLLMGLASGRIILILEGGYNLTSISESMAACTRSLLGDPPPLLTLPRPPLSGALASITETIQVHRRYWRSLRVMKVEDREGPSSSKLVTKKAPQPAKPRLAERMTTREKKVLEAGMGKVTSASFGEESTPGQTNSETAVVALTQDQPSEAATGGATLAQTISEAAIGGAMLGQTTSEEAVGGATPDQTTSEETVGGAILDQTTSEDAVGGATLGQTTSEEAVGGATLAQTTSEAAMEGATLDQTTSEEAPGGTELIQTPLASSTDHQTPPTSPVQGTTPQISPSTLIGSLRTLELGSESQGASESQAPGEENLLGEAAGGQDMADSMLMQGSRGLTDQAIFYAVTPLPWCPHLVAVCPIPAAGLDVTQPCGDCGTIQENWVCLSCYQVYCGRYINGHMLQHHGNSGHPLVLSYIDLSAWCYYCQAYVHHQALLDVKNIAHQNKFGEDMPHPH
Description: Inhibition of human recombinant HDAC6 after 30 mins by fluorimetric assay

Histone deacetylase 1 = Histone deacetylase 1 (Homo sapiens, UniProt Q13547)
Description: Inhibition of human recombinant HDAC1 after 30 mins by fluorimetric assay

MCF7 = assay: cells; conditions: Homo sapiens, MCF7, 72 h
HeLa = assay: cells; conditions: Homo sapiens, 72 h
Jurkat = assay: cells; conditions: Homo sapiens, 72 h
K562 = assay: cells; conditions: Homo sapiens, K562, 72 h
[3] = biological target: Histone deacetylase (Homo sapiens) (UniProt Q13547+O15379+Q9UBN7+Q92769+Q9UQL6+Q8WUI4+Q9BY41+Q96DB2+P56524+Q9UKV0+Q969S8); assay: Inhibition of class 1 HDAC in human Jurkat cells assessed as acetylated histone H3 level at 0.2 to 20 uM after 24 hrs by Western blotting; assay type: cell-based
Histone deacetylase [4] = assay type: cell-based, Homo sapiens; conditions: hela; remark: listed apart in the source
Description: Inhibition of HDAC in human HeLa cell nuclear extract after 30 mins by fluorimetric assay

[5] = biological target: T3, Protein deacetylase HDAC6 (Homo sapiens) (UniProt Q9UBN7); assay: Inhibition of HDAC6 in human Jurkat cells assessed as acetylated alpha-tubulin level at 0.2 to 20 uM after 24 hrs by Western blotting; assay type: cell-based
T3 sequence (whole entry): T2 sequence (Q9UBN7 whole entry)

cells = conditions: Homo sapiens, KYO1, 72 h

Chain of Histone deacetylase 1 (Q13547 whole entry): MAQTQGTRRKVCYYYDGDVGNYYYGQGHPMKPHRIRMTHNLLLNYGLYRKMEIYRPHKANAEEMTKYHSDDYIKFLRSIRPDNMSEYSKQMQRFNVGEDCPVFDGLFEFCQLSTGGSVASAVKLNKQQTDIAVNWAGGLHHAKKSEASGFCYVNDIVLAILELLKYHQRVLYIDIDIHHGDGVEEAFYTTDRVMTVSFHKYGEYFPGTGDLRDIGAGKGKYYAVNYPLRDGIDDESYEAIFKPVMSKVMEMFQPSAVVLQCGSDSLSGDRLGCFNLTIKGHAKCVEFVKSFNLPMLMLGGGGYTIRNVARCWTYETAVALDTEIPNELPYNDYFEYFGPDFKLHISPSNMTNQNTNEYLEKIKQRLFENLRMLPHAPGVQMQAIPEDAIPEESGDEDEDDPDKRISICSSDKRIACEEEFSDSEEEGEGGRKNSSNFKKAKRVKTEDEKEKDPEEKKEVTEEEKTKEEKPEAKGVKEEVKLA
Chain of Histone deacetylase 3 (O15379 whole entry): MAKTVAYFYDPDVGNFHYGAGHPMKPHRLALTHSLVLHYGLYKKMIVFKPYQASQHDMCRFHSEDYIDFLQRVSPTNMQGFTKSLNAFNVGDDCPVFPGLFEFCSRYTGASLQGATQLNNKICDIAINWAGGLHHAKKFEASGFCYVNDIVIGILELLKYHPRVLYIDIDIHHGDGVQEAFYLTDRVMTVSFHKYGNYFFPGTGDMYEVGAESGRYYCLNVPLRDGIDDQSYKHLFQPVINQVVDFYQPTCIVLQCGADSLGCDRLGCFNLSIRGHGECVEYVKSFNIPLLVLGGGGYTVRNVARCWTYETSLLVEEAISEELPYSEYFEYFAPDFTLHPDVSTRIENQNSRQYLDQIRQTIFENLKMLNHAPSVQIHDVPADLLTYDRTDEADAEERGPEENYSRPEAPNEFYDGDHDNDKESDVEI

Row | Structure (SMILES) | IC50 (Histone deacetylase 8) [µM] | IC50 (Histone deacetylase 3) [µM] | IC50 [2] [µM] | IC50 (Histone deacetylase 1) [µM] | further results
1 | O=C(O)CCCCC[C@@H]1NC(=O)[C@H]2CCCCN2C(=O)C[C@H](Cc2ccccc2)NC(=O)[C@H](Cc2c[nH]c3ccccc23)NC1=O | – | – | – | – | IC50 (Histone deacetylase [1]): 0.791 µM
2 | CCC(=O)CCCCC[C@@H]1NC(=O)C[C@H](CC(C)C)NC(=O)[C@H](Cc2c[nH]c3ccccc23)NC(=O)[C@H](CCCCCC(=O)CC)NC1=O | 1.4 | 0.26 | > 10 | 0.15 | –
3 | CCC(=O)CCCCC[C@@H]1NC(=O)[C@H](CCCCNC(C)=O)NC(=O)C[C@H](CC(C)C)NC(=O)[C@H](Cc2c[nH]c3ccccc23)NC1=O | – | – | – | – | GI50 (MCF7): > 20 µM; GI50 (HeLa): > 20 µM; GI50 (Jurkat): > 20 µM
4 | CCC(=O)CCCCC[C@@H]1NC(=O)[C@H](C)NC(=O)C[C@H](CC(C)C)NC(=O)[C@H](Cc2c[nH]c3ccccc23)NC1=O | – | – | – | – | GI50 (K562): 2 µM; GI50 (MCF7): > 20 µM
5 | CCC(=O)CCSC[C@@H]1NC(=O)[C@H](C)NC(=O)C[C@H](CC(C)C)NC(=O)[C@H](Cc2c[nH]c3ccccc23)NC1=O (cyclo(AC(X1)W[β3hL])) | > 10 | > 10 | > 10 | > 10 | –
6 | CC(C)C[C@H]1CC(=O)N[C@@H](C)C(=O)N[C@@H](CCCCCC(=O)O)C(=O)N[C@@H](Cc2ccccc2)C(=O)N1 (cyclo(A[Asu]F[β3hL])) | – | – | – | – | IC50 (Histone deacetylase [1]): 0.541 µM
7 | CC(C)C[C@H]1CC(=O)N[C@@H](C)C(=O)N[C@@H](CSCCC(=O)O)C(=O)N[C@@H](Cc2c[nH]c3ccccc23)C(=O)N1 (cyclo(C(CH2CH2COOH)W[β3hL]A)) | 6.05 | 7.08 | > 10 | 4.84 | –
8 | CC(=O)NCCCC[C@@H]1NC(=O)C[C@H](CC(C)C)NC(=O)[C@H](Cc2c[nH]c3ccccc23)NC(=O)[C@H](CSCCC(=O)O)NC1=O (cyclo(C(CH2CH2COOH)W[β3hL]K(Ac))) | 7.04 | > 10 | > 10 | – | –
9 | CC(C)C[C@H]1CC(=O)N[C@@H](C)C(=O)N[C@@H](CSCC(=O)O)C(=O)N[C@@H](Cc2c[nH]c3ccccc23)C(=O)N1 (cyclo(C(Carboxymethyl)W[β3hL]A)) | 9.7 | > 10 | > 10 | > 10 | –
10 | CC(C)C[C@H]1CC(=O)N[C@@H](Cc2ccccc2)C(=O)N[C@@H](CCCCCC(=O)O)C(=O)N[C@@H](Cc2cccc3ccccc23)C(=O)N1 (cyclo([1Nal][β3hL]F[Asu])) | 0.53 | 0.69 | 5.8 | 0.068 | Activity [3]: Active; IC50 (Histone deacetylase [4]): 0.253 µM; Activity [5]: inactive; GI50 (K562): > 20 µM; GI50 (MCF7): > 20 µM; GI50 (cells): > 20 µM; GI50 (HeLa): > 20 µM; IC50 (Histone deacetylase [1]): 0.742 µM; GI50 (Jurkat): > 20 µM
11 | CC(C)C[C@H]1CC(=O)NC(C)(C)C(=O)N[C@@H](CCCCCC(=O)O)C(=O)N[C@@H](Cc2cccc3ccccc23)C(=O)N1 (cyclo([1Nal][β3hL][Aib][Asu])) | 0.87 | – | – | – | –
12 | CC(=O)NCCCCC[C@@H]1NC(=O)C[C@H](CC(C)C)NC(=O)[C@H](Cc2cccc3ccccc23)NC(=O)[C@H](CCCCCC(=O)O)NC1=O (cyclo([1Nal][β3hL][hLys](Ac)[Asu])) | – | 0.032 | > 10 | 0.008 | IC50 (Histone deacetylase [4]): 0.017 µM; GI50 (K562): 30 µM; GI50 (cells): 43 µM; GI50 (HeLa): 18 µM; GI50 (Jurkat): 0.3 µM
13 | O=C(O)CCCCC[C@@H]1NC(=O)[C@H](Cc2ccccc2)NC(=O)C[C@H](Cc2c[nH]c3ccccc23)NC(=O)[C@H](Cc2cccc3ccccc23)NC1=O (cyclo([1Nal][β3hW]F[Asu])) | – | 1.67 | 8 | 0.46 | IC50 (Histone deacetylase [4]): 1.04 µM; IC50 (Histone deacetylase [1]): 1.009 µM
14 | CC1(C)NC(=O)C[C@H](Cc2c[nH]c3ccccc23)NC(=O)[C@H](Cc2cccc3ccccc23)NC(=O)[C@H](CCCCCC(=O)O)NC1=O (cyclo([1Nal][β3hW][Aib][Asu])) | – | – | 3.7 | – | –
15 | CC(=O)NCCCC[C@@H]1NC(=O)C[C@H](Cc2ccc(O)cc2)NC(=O)[C@H](Cc2cccc3ccccc23)NC(=O)[C@H](CCCCCC(=O)O)NC1=O (cyclo([1Nal][β3hY]K(Ac)[Asu])) | – | – | 4.4 | – | –
16 | O=C(O)CCCCC[C@@H]1NC(=O)[C@H](Cc2c(F)c(F)c(F)c(F)c2F)NC(=O)C[C@H](Cc2ccc(O)cc2)NC(=O)[C@H](Cc2cccc3ccccc23)NC1=O (cyclo([1Nal][β3hY][Phe(F5)][Asu])) | 6.7 | – | > 10 | 1 | –
17 | N=C(N)NCCC[C@@H]1NC(=O)C[C@H](Cc2ccc(O)cc2)NC(=O)[C@H](CC(=O)O)NC(=O)[C@H](CCCCCC(=O)NO)NC1=O (cyclo([Asu](NHOH)D[β3hY]R)) | – | – | – | – | Activity [3]: inactive; Activity [5]: Active; GI50 (MCF7): > 20 µM; GI50 (HeLa): 9 µM; GI50 (Jurkat): > 20 µM
18 | CC(C)C[C@H]1CC(=O)N[C@@H](C)C(=O)N[C@@H](CCCCCC(=O)NO)C(=O)N[C@@H](Cc2c[nH]c3ccccc23)C(=O)N1 (cyclo([Asu](NHOH)W[β3hL]A)) | – | – | – | – | GI50 (Jurkat): 1.7 µM
19 | CC(C)C[C@H]1CC(=O)N[C@@H](Cc2ccccc2)C(=O)N[C@@H](CCCCCC(=O)NO)C(=O)N[C@@H](Cc2c[nH]c3ccccc23)C(=O)N1 (cyclo([Asu](NHOH)W[β3hL]F)) | – | 0.031 | 0.07 | – | GI50 (K562): 1.9 µM; GI50 (cells): 1.9 µM; GI50 (Jurkat): 1.3 µM
20 | CC(C)C[C@H]1CC(=O)N[C@@H](C)C(=O)N[C@@H](CCCCCC(=O)O)C(=O)N[C@@H](Cc2cccc3ccccc23)C(=O)N1 (cyclo([Asu][1Nal][β3hL]A)) | – | 0.99 | – | 0.2 | IC50 (Histone deacetylase [4]): 0.205 µM; IC50 (Histone deacetylase [1]): 0.377 µM
21 | CC(C)C[C@H]1CC(=O)N[C@@H](CCCNC(=N)N)C(=O)N[C@@H](CCCCCC(=O)O)C(=O)N[C@@H](Cc2cccc3ccccc23)C(=O)N1 (cyclo([Asu][1Nal][β3hL]R)) | 0.607 | 0.262 | 1.4 | 0.178 | –
22 | N=C(N)NCCC[C@@H]1NC(=O)C[C@H](Cc2ccc(O)cc2)NC(=O)[C@H](Cc2cccc3ccccc23)NC(=O)[C@H](CCCCCC(=O)O)NC1=O (cyclo([Asu][1Nal][β3hY]R)) | 1.4 | – | – | – | –
23 | CC[C@]1(O)C[C@@H]2CN(CCc3c([nH]c4ccccc34)[C@@](C(=O)OC)(c3cc4c(cc3OC)N(C)[C@H]3[C@@](O)(C(=O)OC)[C@H](OC(C)=O)[C@]5(CC)C=CCN6CC[C@]43[C@@H]65)C2)C1 [VINBLASTINE] | – | – | – | – | GI50 (MCF7): 10 µM; GI50 (cells): < 0.1 µM
